What was measured:
L1210 [1] = assay: Antitumor activity against mouse L1210 cells […] in ip dosed C3H X DBA2 F1 hybrid mouse on day 0 and dosed at LD10 level once daily on days 1 to 5 assessed as increase in life span relative to control; type: functional
Mus musculus = assay: Toxicity in ip dosed C3H X DBA2 F1 hybrid mouse […] with mouse L1210 cells on day 0 and dosed once daily on days 1 to 5 measured after 50 days; type: organism-based; details: in vivo, 1200 h
L1210 [2] = assay: Antitumor activity against mouse L1210 cells […] in ip dosed C3H X DBA2 F1 hybrid mouse on day 0 and dosed once daily on days 1 to 5 assessed as increase in life span relative to control; type: functional
[3] = Lipophilic-hydrophilic balance, Rm of the compound by partition chromatography; type: physicochemical

SMILES	log(ILSmax) (L1210 [1])	LD10 (Mus musculus) [mg/kg]	D40 (L1210 [2]) [mg/kg]	Rm [3]
CC[n+]1c(C)cc(Nc2ccc(NC(=O)c3ccc(C(=O)Nc4ccc(Nc5cc(C)[n+](CC)c(N)n5)cc4)cc3)cc2)nc1N.Cc1ccc(S(=O)(=O)[O-])cc1.Cc1ccc(S(=O)(=O)[O-])cc1	2.09	200	69	-0.4
CCCCC[n+]1cccc2cc(NC(=O)COc3ccc(C(=O)Nc4ccc5c(ccc[n+]5CCCCC)c4)cc3)ccc21.Cc1ccc(S(=O)(=O)[O-])cc1.Cc1ccc(S(=O)(=O)[O-])cc1	1.53	150	100	0.78
CC[n+]1cccc(-c2ccc(NC(=O)c3ccc(C(=O)Nc4ccc(-c5ccc(-c6ccc(-c7ccc[n+](CC)c7)cc6)cc5)cc4)cc3)cc2)c1.Cc1ccc(S(=O)(=O)[O-])cc1.Cc1ccc(S(=O)(=O)[O-])cc1	2.2	43	5.6	-0.44
CCC[n+]1cccc(NC(=O)c2ccc(NC(=O)c3ccc(C(=O)Nc4ccc(C(=O)Nc5ccc[n+](CCC)c5)c(OC)c4)cc3)cc2OC)c1.Cc1ccc(S(=O)(=O)[O-])cc1.Cc1ccc(S(=O)(=O)[O-])cc1	1.79	37	22	0.7
CCC[n+]1cccc(NC(=O)c2ccc(NC(=O)c3ccc(C(=O)Nc4ccc5c(ccc[n+]5CCC)c4)cc3)cc2)c1.Cc1ccc(S(=O)(=O)[O-])cc1.Cc1ccc(S(=O)(=O)[O-])cc1	2.17	20	10.2	0.44
CCC[n+]1cccc2cc(NC(=O)c3ccc(C(=O)Nc4ccc(NC(=O)c5ccc6c(ccc[n+]6CCC)c5)cc4)cc3)ccc21.Cc1ccc(S(=O)(=O)[O-])cc1.Cc1ccc(S(=O)(=O)[O-])cc1	2.08	80	60	0
C[n+]1cccc2cc(NC(=O)c3ccc(-c4ccc(-c5ccc(-c6ccc(C(=O)Nc7ccc8c(ccc[n+]8C)c7)cc6)cc5)cc4)cc3)ccc21.Cc1ccc(S(=O)(=O)[O-])cc1.Cc1ccc(S(=O)(=O)[O-])cc1	1.9	65	10	-0.52
CC[n+]1cccc2cc(NC(=O)c3ccc(C(=O)Nc4ccc(NC(=O)c5ccc6c(ccc[n+]6CC)c5)cc4)cc3)ccc21.Cc1ccc(S(=O)(=O)[O-])cc1.Cc1ccc(S(=O)(=O)[O-])cc1	1.9	50	35	-0.35
CC[n+]1ccc(Nc2ccc(C(=O)Nc3ccc(Nc4cc[n+](CC)c5ccc(N)cc45)cc3)cc2)cc1.[I-].[I-]	2.23	9	0.7	0.19
CC[n+]1cccc(NC(=O)c2ccc(NC(=O)/C=C/c3ccc(C(=O)Nc4ccc(C(=O)Nc5ccc[n+](CC)c5)cc4)cc3)cc2)c1.Cc1ccc(S(=O)(=O)[O-])cc1.Cc1ccc(S(=O)(=O)[O-])cc1	1.88	55	22	-0.58
C[n+]1cc(-c2ccc(NC(=O)c3ccc(C(=O)Nc4ccc(-c5c[n+](C)c(N)nc5N)cc4)cc3)cc2)c(N)nc1N.Cc1ccc(S(=O)(=O)[O-])cc1.Cc1ccc(S(=O)(=O)[O-])cc1	2.22	12	1.5	-0.42
CCC[n+]1cccc(NC(=O)c2ccc(NC(=O)c3ccc(C(=O)Nc4ccc(C(=O)Nc5ccc[n+](CCC)c5)cc4OC)cc3)c(OC)c2)c1.Cc1ccc(S(=O)(=O)[O-])cc1.Cc1ccc(S(=O)(=O)[O-])cc1	1.6	140	140	0.3
CCC[n+]1ccc(-c2ccc(NC(=O)c3ccc(Nc4cc[n+](CCC)c5ccccc45)cc3)cc2)cc1.[Br-].[Br-]	1.6	4.8	4.8	0.8
CC[n+]1ccc(Nc2ccc(C(=O)Nc3ccc(/C(C)=N/NC(=N)N)cc3)c(N)c2)c2cc(N)ccc21.Cc1ccc(S(=O)(=O)O)cc1.Cc1ccc(S(=O)(=O)[O-])cc1	2.32	50	6	-0.2
CC[n+]1cccc(NC(=O)c2ccc(NC(=O)c3ccc(C(=O)Nc4ccc(C(=O)Nc5ccc[n+](CC)c5)c(N)c4)cc3)cc2N)c1.Cc1ccc(S(=O)(=O)[O-])cc1.Cc1ccc(S(=O)(=O)[O-])cc1	2.18	10	3.2	-0.65
CC[n+]1cccc(-c2ccc(NC(=O)/C=C/c3ccc(C(=O)Nc4ccc(-c5ccc(-c6ccc(-c7ccc[n+](CC)c7)cc6)cc5)cc4)cc3)cc2)c1.Cc1ccc(S(=O)(=O)[O-])cc1.Cc1ccc(S(=O)(=O)[O-])cc1	2.25	60	5.2	-0.3
CC[n+]1cccc2cc(NC(=O)/C=C/c3ccc(C(=O)Nc4ccc5c(ccc[n+]5CC)c4)cc3)ccc21.Cc1ccc(S(=O)(=O)[O-])cc1.Cc1ccc(S(=O)(=O)[O-])cc1	1.7	9	5	0.11
C[n+]1cccc(NC(=O)c2ccc(NC(=O)c3ccc(C(=O)Nc4ccc(C(=O)Nc5ccc[n+](C)c5)cc4)cc3)cc2)c1.[I-].[I-]	2.02	17	7.5	-0.12
CC[n+]1cccc(NC(=O)c2ccc(NC(=O)c3ccc(C(=O)Nc4ccc(C(=O)Nc5ccc[n+](CC)c5)cc4)c(OC)c3)cc2)c1.Cc1ccc(S(=O)(=O)[O-])cc1.Cc1ccc(S(=O)(=O)[O-])cc1	1.85	20	18	0.55
CCCC[n+]1cccc2cc(NC(=O)c3ccc(C(=O)Nc4ccc5c(ccc[n+]5CCCC)c4)cc3)ccc21.Cc1ccc(S(=O)(=O)[O-])cc1.Cc1ccc(S(=O)(=O)[O-])cc1	2.04	59	25	0.67
COCC[n+]1cccc2cc(NC(=O)c3ccc(C(=O)Nc4ccc5c(ccc[n+]5CCOC)c4)cc3)ccc21.Cc1ccc(S(=O)(=O)[O-])cc1.Cc1ccc(S(=O)(=O)[O-])cc1	2.04	17	11	0.4
CCC[n+]1ccc(Nc2ccc(NC(=O)c3ccc(Nc4cc[n+](CCC)c5ccccc45)cc3N)cc2)cc1.[I-].[I-]	1.6	24	24	0.71
CCC[n+]1cccc(NC(=O)c2ccc(NC(=O)/C=C/c3ccc(C(=O)Nc4ccc(C(=O)Nc5ccc[n+](CCC)c5)cc4)cc3)cc2)c1.Cc1ccc(S(=O)(=O)[O-])cc1.Cc1ccc(S(=O)(=O)[O-])cc1	1.95	46	11.5	-0.2

Reference: ChEMBL document CHEMBL3228010, “Potential antitumor agents. 29. Quantitative structure-activity relationships for the antileukemic bisquaternary ammonium heterocycles” (J Med Chem, 1979)
